Structures are written as SMILES.

The target of the first experiment is T1, human OX2R (Homo sapiens, UniProt O43614).
T1 sequence (O43614 1-444): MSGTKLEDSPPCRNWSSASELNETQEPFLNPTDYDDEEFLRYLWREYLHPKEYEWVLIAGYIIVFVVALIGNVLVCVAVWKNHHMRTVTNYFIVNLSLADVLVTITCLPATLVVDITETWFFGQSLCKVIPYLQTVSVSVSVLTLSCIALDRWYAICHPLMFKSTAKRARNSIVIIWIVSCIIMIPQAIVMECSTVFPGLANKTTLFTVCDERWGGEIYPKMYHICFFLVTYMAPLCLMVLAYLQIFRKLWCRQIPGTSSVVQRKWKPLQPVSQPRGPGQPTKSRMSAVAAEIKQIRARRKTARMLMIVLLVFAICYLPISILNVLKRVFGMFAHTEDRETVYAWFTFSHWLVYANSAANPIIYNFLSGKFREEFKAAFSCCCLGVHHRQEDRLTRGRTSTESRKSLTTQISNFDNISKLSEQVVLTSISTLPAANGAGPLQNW
The experiment is described as follows: IPOne (IP-1) orexin receptor agonist assay in CHO cells expressing human OX2R. To be noted: CHO, hOX2R IP-One; percentage of mean max effect of a reference compound at 1 uM with 100% activity.
Procedure: In atypical experiment, the OX1 and OX2 receptor agonist activity is determined in accordance with the following general experimental method. Chinese hamster ovary (CHO) cells expressing human OX1R and/or the human OX2R were grown in Iscove's modified DMEM containing glutaMAX™, 1% G418, 100 U/mL penicillin, 100 μg/mL streptomycin and 10% heat-inactivated qualified fetal bovine serum (FBS). […] During this incubation, IP-one detection reagents were prepared (38:1:1 lysis buffer:D2:AB-cryptate reagents).
For each compound, data were fit to a four parameter logistic fit (ActivityBase software) and the EC50 was reported as the inflection point of the resulting curve.
Usually Emax stands for the maximal effect, on the per cent scale that the assay sets. In turn, `C[C@@H]1C[C@H](NS(C)(=O)=O)[C@@H]2COC3CCC(CC3)c3ccccc3/C=C/OC(=O)N12` [Example 2, N-((2^1R,2^4R,5^2R,5^3S,5^5R,E)-5^5-methyl-6-oxo-3,7-dioxa-5(2,1)-pyrrolidina-1(1,2)-benzena-2(1,4)-cyclohexanacyclonaphan-8-en-5^3-yl)methanesulfonamide] yielded an Emax of 102%.

`COC[C@@H]1C[C@H](NS(C)(=O)=O)[C@@H]2COC3CCC(CC3)c3cccc(F)c3/C=C/OC(=O)N12` [Example 3, N-((2^1R,2^4R,5^2R,5^3S,5^5S,E)-1^3-fluoro-5^5-(methoxymethyl)-6-oxo-3,7-dioxa-5(2,1)-pyrrolidina-1(1,2)-benzena-2(1,4)-cyclohexanacyclonaphan-8-en-5^3-yl)methanesulfonamide]: the Emax came to 99.5%.

As for `C[C@@H]1C[C@H](NS(=O)(=O)N(C)C)[C@@H]2COC3CCC(CC3)c3ccccc3CCOC(=O)N12` [Example 4, N′-((2′R,2^4R,5^2R,5^3S,5^5R)-5^5-methyl-6-oxo-3,7-dioxa-5(2,1)-pyrrolidina-1(1,2)-benzena-2(1,4)-cyclohexanacyclononaphane-5^3-yl)-N,N-dimethyl-sulfamide], the maximum response (Emax) is 101%.

Regarding `C[C@@H]1C[C@H](NS(C)(=O)=O)[C@@H]2COC3CCC(CC3)c3ccccc3CCOC(=O)N12` [Example 5, N-((2^1R,2^4R,5^2R,5^3S, 5^5R)-5^5-methyl-6-oxo-3,7-dioxa-5(2,1)-pyrrolidina-1(1,2)-benzena-2(1,4)-cyclo-hexanacyclonaphane-5^3-yl)methane sulfonamide], the Emax worked out at 100%.

`COC[C@@H]1C[C@H](NS(C)(=O)=O)[C@@H]2COC3CCC(CC3)c3cccc(F)c3CCOC(=O)N12` [Example 6, N-((2^1R,2^4R,5^2R,5^3S, 5^5S)-1^3-fluoro-5^5-(methoxymethyl)-6-oxo-3,7-dioxa-5(2,1)-pyrrolidina-1(1,2)-benzena-2(1,4)-cyclo-hexanacyclonaphane-5^3-yl)methane sulfonamide] displayed an Emax of 100%.

Compound `CN(C)S(=O)(=O)N[C@H]1CCN2C(=O)CCCCOc3cccc(c3)[C@H]3CC[C@H](CC3)OC[C@@H]12` [Example 7, N′-((2^1S,2^4S,5^2R,5^3S)-6-oxo-3,11-dioxa-5(2,1)-pyrrolidina-1(1,3)-benzena-2(1,4)-cyclohexanacycloundecaphane-5^3-yl)-N,N-dimethyl-sulfamide] displayed an Emax of 104%.

`C[C@@H]1C[C@H](NS(=O)(=O)N(C)C)[C@@H]2COC3CCC(CC3)c3cccc(c3)OCCCCCC(=O)N12` [Example 8, N′-((2^1S,2^4S,5^2R,5^3S,5^5R)-5^5-methyl-6-oxo-3,12-dioxa-5(2,1)-pyrrolidina-1(1,3)-benzena-2(1,4)-cyclohexanacyclododecaphane-5^3-yl)-N,N-dimethyl-sulfamide] showed an Emax of 100%.

With `C[C@@H]1C[C@H](NS(=O)(=O)N(C)C)[C@@H]2COC3CCC(CC3)c3cccc(c3)OCCC=CC(=O)N12` [Example 9, N′-((2^1S,2^4S,5^2R,5^3S, 5^5R)-5^5-methyl-6-oxo-3,11-dioxa-5(2,1)-pyrrolidina-1(1,3)-benzena-2(1,4)-cyclohexanacycloundecaphan-7-en-5^3-yl)-N,N-dimethyl-sulfamide], the Emax amounted to 100%.

Consider `C[C@@H]1C[C@H](NS(=O)(=O)N(C)C)[C@@H]2COC3CCC(CC3)c3cccc(c3)OCCCCC(=O)N12` [Example 10, N′-((2^1S,2^4S,5^2R,5^3S, 5^5R)-5^5-methyl-6-oxo-3,11-dioxa-5(2,1)-pyrrolidina-1(1,3)-benzena-2(1,4)-cyclohexanacycloundecaphane-5^3-yl)-N,N-dimethyl-sulfamide], for which the Emax came to 101%.

Take `C[C@@H]1C[C@H](NS(=O)(=O)N(C)C)[C@@H]2COC3CCC(CC3)c3cccc(c3)OCCCCOC(=O)N12` [Example 11, N′-((2^1S,2^4S,5^2R,5^3S,5^5R)-5^5-methyl-6-oxo-3,7,12-trioxa-5(2,1)-pyrrolidina-1(1,3)-benzena-2(1,4)-cyclohexanacyclododecaphane-5^3-yl)-N,N-dimethyl-sulfamide]: the Emax came out at 101%.

For `C[C@@H]1C[C@H](NS(=O)(=O)N(C)C)[C@@H]2CO[C@H]3CC[C@H](CC3)c3cccc(c3)CCCCCC(=O)N12` [Example 12, N′-((2^1S,2^4S,5^2R,5^3S,5^5R)-5^5-methyl-6-oxo-3-oxa-5(2,1)-pyrrolidina-1(1,3)-benzena-2(1,4)cyclohexanacycloundecaphane-5^3-yl)-N,N-dimethyl-sulfamide], the Emax amounted to 101%.

Turning to `C[C@@H]1C[C@H](NS(=O)(=O)N(C)C)C2COC3CCC(CC3)c3cccc(c3)OCCCC(=O)N21` (stereo partly shown) [Example 14, N′-((2^1S,2^4S,5^2R, 5^3S,5^5R)-5^5-methyl-6-oxo-3,10-dioxa-5(2,1)-pyrrolidina-1(1,3)-benzena-2(1,4)-cyclohexana-cyclodecaphane-5^3-yl)-N,N-methyl-sulfamide], the Emax was determined as 100%.

Staying with this experiment, now noted: hOX2R IP-One; percentage of mean max effect of a reference compound at 1 uM with 100% activity.
Regarding `CS(=O)(=O)NC1CCCN2C(=O)CCCOc3cccc(c3)C3CCC(C3)OCC12` (single isomer, unassigned) [Example 34, N-((2^1S,2^3R,5^2R,5^3S)-6-oxo-3,10-dioxa-5(2,1)-piperidina-1(1,3)-benzena-2(1,3)-cyclopentanacyclodecaphane-5^3-yl)methanesulfonamide], the “Emax (%)” value turned out to be 5.0%.

As to `CS(=O)(=O)NC1CCCN2C(=O)CCCOc3cccc(c3)C3CCC(C3)OCC12` (single isomer, unassigned) [Example 35, N-((2^1S,2^3R,5^2R,5^3S)-6-oxo-3,10-dioxa-5(2,1)-piperidina-1(1,3)-benzena-2(1,3)-cyclopentanacyclodecaphane-5^3-yl)methanesulfonamide], the “Emax (%)” value turned out to be 100.1%.

On to `CS(=O)(=O)NC1CCCN2C(=O)CCCOc3cccc(c3)C3CCC(C3)OCC12` (single isomer, unassigned) [Example 36, N-((2^1S,2^3R,5^2R,5^3S)-6-oxo-3,10-dioxa-5(2,1)-piperidina-1(1,3)-benzena-2(1,3)-cyclopentanacyclodecaphane-5^3-yl)methanesulfonamide], for which the “Emax (%)” value turned out to be 103.3%.

On to `CN(C)S(=O)(=O)NC1CCCN2C(=O)OCCc3ccccc3C3CCC(CC3)OCC12` (single isomer, unassigned) [Example 38, N′-((2^1S,2^4S,5^2R,5^3S)-6-oxo-3,7-dioxa-5(2,1)-piperidina-1(1,2)-benzena-2(1,4)-cyclohexanacyclononaphane-5^3-yl)-N,N-dimethyl-sulfamide], for which the “Emax (%)” value was 100.8%.

For `CN(C)S(=O)(=O)NC1CCCN2C(=O)OCCc3ccccc3C3CCC(CC3)OCC12` (single isomer, unassigned) [Example 39, N′-((2^1S,2^4S,5^2R,5^3S)-6-oxo-3,7-dioxa-5(2,1)-piperidina-1(1,2)-benzena-2(1,4)-cyclohexanacyclononaphane-5^3-yl)-N,N-dimethyl-sulfamide], the “Emax (%)” value is 4.4%.

`CN(C)S(=O)(=O)NC1CCCN2C(=O)OCCc3ccccc3C3CCC(CC3)OCC12` (single isomer, unassigned) [Example 40, N′-((2^1S,2^4S,5^2R,5^3S)-6-oxo-3,7-dioxa-5(2,1)-piperidina-1(1,2)-benzena-2(1,4)-cyclohexanacyclononaphane-5^3-yl)-N,N-dimethyl-sulfamide]: the “Emax (%)” value is on record as 71.6%.

On to `CC1CC(NS(=O)(=O)N(C)C)C2COC3CCC(CC3)c3cccc(c3)OCCCOC(=O)N12` (stereo not shown) [Example 13], for which the “Emax (%)” value was determined as 99.3%.

Source of the values: patent US20240002397A1, “3-AMINO PYRROLIDINE AND PIPERIDINE MACROCYCLIC OREXIN RECEPTOR AGONISTS” (Merck Sharp & Dohme LLC, priority 2020, published 2024).
